Experimental data from patent publication US20230114728A1 (Venatorx Pharmaceuticals, Inc., priority 2019, published 2023).

How the values were obtained:
E. coli K12 PBP3 = target: T1, E. coli K12 PBP3 (Escherichia coli, UniProt P0AD68); assay: biochemical; assay type: binding
T1 construct: made in house
In short: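 Fluorescence polarization (ex 490/em 520 nm) competition of inhibitors against Bocillin-FL at 0.1 μM, read up to 60 min. Final PBP levels: E. coli PBP3 1.5 μM; A. baumannii PBP2 2.5 μM, PBP3 0.2 μM in Tris pH 8.0/NaCl/glycerol/Tween 20; N. gonorrhoeae PBP2 […] in Hepes pH 8.0/NaCl/glycerol. EC50 = concentration halving PBP-bound Bocillin-FL.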

P. aeruginosa PBP3 = target: T2, P. aeruginosa PBP3 (Pseudomonas aeruginosa, UniProt G3XD46); assay: Bocillin-FL fluorescence polarization competition binding assay, P. aeruginosa PBP3; details: fluorescence polarization competition binding assay using Bocillin-FL
T2 construct: made in house
In short: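 Binding of boronic acid inhibitors to purified Pseudomonas aeruginosa (PA01) PBP3 was measured by fluorescence polarization competition with Bocillin-FL, a fluorescent penicillin V. Reactions of 80 μl contained 0.75 μM PBP3 and 0.1 μM Bocillin-FL in 50 mM Hepes (pH 8.0), 300 mM NaCl and 5% (v/v) glycerol, in black 384-well plates. FP (Excitation 490 nm, Emission 520 nm) was read for up to 60 minutes. EC50 is the concentration that halves PBP-bound Bocillin-FL.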

T2 sequence (G3XD46 whole entry): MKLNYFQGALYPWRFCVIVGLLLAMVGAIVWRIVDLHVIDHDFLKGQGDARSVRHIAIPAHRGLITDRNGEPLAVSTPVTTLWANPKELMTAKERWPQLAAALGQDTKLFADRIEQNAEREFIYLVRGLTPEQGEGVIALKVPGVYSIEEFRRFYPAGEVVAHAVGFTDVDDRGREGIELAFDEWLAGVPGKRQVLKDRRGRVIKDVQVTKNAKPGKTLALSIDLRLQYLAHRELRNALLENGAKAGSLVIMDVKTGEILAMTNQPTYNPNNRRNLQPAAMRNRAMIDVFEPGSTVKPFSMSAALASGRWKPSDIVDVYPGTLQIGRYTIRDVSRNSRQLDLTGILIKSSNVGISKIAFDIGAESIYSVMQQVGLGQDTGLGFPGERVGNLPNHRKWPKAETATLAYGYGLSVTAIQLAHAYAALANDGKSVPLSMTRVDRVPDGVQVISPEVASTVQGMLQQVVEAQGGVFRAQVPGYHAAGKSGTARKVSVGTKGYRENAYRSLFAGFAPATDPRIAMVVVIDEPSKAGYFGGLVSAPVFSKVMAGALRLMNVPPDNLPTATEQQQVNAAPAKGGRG
T1 sequence (P0AD68 1-577): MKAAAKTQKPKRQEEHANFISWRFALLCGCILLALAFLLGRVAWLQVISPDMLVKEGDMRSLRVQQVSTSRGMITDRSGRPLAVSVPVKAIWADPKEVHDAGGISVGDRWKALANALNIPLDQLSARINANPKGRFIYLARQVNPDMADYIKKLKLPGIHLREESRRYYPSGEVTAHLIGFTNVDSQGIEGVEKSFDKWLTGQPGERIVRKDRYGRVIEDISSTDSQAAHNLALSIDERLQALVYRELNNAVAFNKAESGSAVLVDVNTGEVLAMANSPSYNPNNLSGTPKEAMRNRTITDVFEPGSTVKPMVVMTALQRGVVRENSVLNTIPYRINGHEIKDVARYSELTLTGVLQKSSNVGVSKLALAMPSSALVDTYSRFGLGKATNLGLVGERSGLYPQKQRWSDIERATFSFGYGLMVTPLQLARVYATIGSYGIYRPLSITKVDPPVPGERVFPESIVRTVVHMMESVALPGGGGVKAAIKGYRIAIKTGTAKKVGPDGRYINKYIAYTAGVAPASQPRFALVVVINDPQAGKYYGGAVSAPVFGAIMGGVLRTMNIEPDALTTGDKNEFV

| SMILES | EC50 (E. coli K12 PBP3) | P. aeruginosa PBP3 Potency (P. aeruginosa PBP3) |
| --- | --- | --- |
| NCCN1CCN(C(=O)N[C@@H](C(=O)N[C@H]2Cc3ccc(F)c(C(=O)O)c3OB2O)c2c(F)cc(O)c(O)c2Cl)C(=O)C1=O (single isomer, unassigned) [Example 26] | < 30 µM | D (D represents a potency <10 μM) |
| NCCCN1CCN(C(=O)N[C@@H](C(=O)N[C@H]2Cc3ccc(F)c(C(=O)O)c3OB2O)c2c(F)cc(O)c(O)c2Cl)C(=O)C1=O (single isomer, unassigned) [Example 27] | < 30 µM | D (D represents a potency <10 μM) |
| NCCCN1CCN(C(=O)N[C@H](C(=O)N[C@H]2Cc3ccc(F)c(C(=O)O)c3OB2O)c2ccc(O)c(O)c2Cl)C(=O)C1=O (single isomer, unassigned) [Example 28] | 30 to 500 µM | B (B represents a potency between 30 μM and 500 μM inclusive) |
| O=C(O)c1c(F)ccc2c1OB(O)[C@@H](NC(=O)[C@H](NC(=O)N1CCNC1=O)c1c(F)cc(O)c(O)c1Cl)C2 (single isomer, unassigned) [Example 34] | < 30 µM | D (D represents a potency <10 μM) |
| CS(=O)(=O)N1CCN(C(=O)N[C@@H](C(=O)N[C@H]2Cc3ccc(F)c(C(=O)O)c3OB2O)c2c(F)cc(O)c(O)c2Cl)C1=O (single isomer, unassigned) [Example 35] | < 30 µM | D (D represents a potency <10 μM) |
| NCCN1CCN(C(=O)N[C@@H](C(=O)N[C@H]2Cc3ccc(F)c(C(=O)O)c3OB2O)c2c(F)cc(O)c(O)c2F)C(=O)C1=O (single isomer, unassigned) [Example 40] | < 30 µM | D (D represents a potency <10 μM) |
| NCCCN1CCN(C(=O)N[C@@H](C(=O)N[C@H]2Cc3ccc(F)c(C(=O)O)c3OB2O)c2c(F)cc(O)c(O)c2F)C(=O)C1=O (single isomer, unassigned) [Example 41] | < 30 µM | D (D represents a potency <10 μM) |
| O=C(O)c1ccc(C(NC(=O)c2ccc(O)c(O)c2Cl)C(=O)N[C@H]2Cc3cccc(C(=O)O)c3OB2O)cc1F (stereo partly drawn) [Example 7, (3R)-3-(2-(4-carboxy-3-fluorophenyl)-2-(2-chloro-3,4-dihydroxybenzamido)acetamido)-2-hydroxy-3,4-dihydro-2H-benzo[e][1,2]oxaborinine-8-carboxylic acid] | 30 to 500 µM | D (D represents a potency <10 μM) |
| O=C(NC(C(=O)N[C@H]1Cc2ccc(F)c(C(=O)O)c2OB1O)c1ncc(O)cc1F)c1ccc(O)c(O)c1Cl (stereo partly drawn) [Example 8, (3R)-3-(2-(2-chloro-3,4-dihydroxybenzamido)-2-(3-fluoro-5-hydroxypyridin-2-yl)acetamido)-7-fluoro-2-hydroxy-3,4-dihydro-2H-benzo[e][1,2]oxaborinine-8-carboxylic acid] | 30 to 500 µM | D (D represents a potency <10 μM) |
| O=C(Nc1ccc(O)c(O)c1Cl)NC(C(=O)N[C@H]1Cc2ccc(F)c(C(=O)O)c2OB1O)c1ncc(O)cc1F (stereo partly drawn) [Example 9, (3R)-3-(2-(3-(2-chloro-3,4-dihydroxyphenyl)ureido)-2-(3-fluoro-5-hydroxypyridin-2-yl)acetamido)-7-fluoro-2-hydroxy-3,4-dihydro-2H-benzo[e][1,2]oxaborinine-8-carboxylic acid] | 30 to 500 µM | D (D represents a potency <10 μM) |
| O=C(O)c1c(F)ccc2c1OB(O)[C@@H](NC(=O)C(NC(=O)N1CCN(CCBr)C(=O)C1=O)c1c(F)cc(O)c(O)c1F)C2 (stereo partly drawn) [Example 38, (3R)-3-(2-(4-(2-bromoethyl)-2,3-dioxopiperazine-1-carboxamido)-2-(2,6-difluoro-3,4-dihydroxyphenyl)acetamido)-7-fluoro-2-hydroxy-3,4-dihydro-2H-benzo[e][1,2]oxaborinine-8-carboxylic acid] | < 30 µM |  |
